# According to paper PMC9841524, “Structure-Based Rational Design of Small α-Helical Peptides with Broad-Spectrum Activity against Multidrug-Resistant Pathogens” (Journal of Medicinal Chemistry, 2022):
# Like-named read-outs stand apart in the source and are kept apart here. Where a SMILES comes first, the peptide text is derived from it. Bridges are numbered along the chain shown (N, C = ends). [ ]: non-standard residue; d: D form. The star is where a group is joined. X1 = CC[C@H](C)CCCCC(=O)*; Dab = NCC[C@H](N)C(=O)O
# How the values were obtained:
# [1] = test system: E. faecalis (ATCC 51575); test: microbe, parasite or virus in culture; conditions: Enterococcus faecalis, ATCC51575, 24 h, read-out: MIC, E. faecalis (ATCC 51575)
# Method: (§1) Description of the characteristics and growth conditions of various bacterial strains used in the study are provided in the Supporting Information (Table S3). Antibacterial susceptibility testing was carried out using a standard microtiter dilution method recommended by the clinical and laboratory standard institute (CLSI) and measured as a minimum inhibitory concentration (MIC), the lowest peptide concentration that inhibited bacterial growth. Briefly, the overnight grown cultures in the recommended broth for each bacterial strain were diluted in cation-adjusted Mueller Hinton Broth (CAMHB) to give an inoculum of 10^6 colony-forming units (CFU)/mL. A 2-fold serially diluted test peptide solution (100 μL) was added to the microtiter plates. After adding bacterial suspension (100 μL), the plates were incubated at 37 °C for 24 h, and the MICs were determined. The same protocol was used to determine the MICs in the presence of salts and serum except using the media supplemented with various cationic salts (150 mM NaCl, 4.5 mM KCl, 6 mM NH4Cl, 1 mM MgCl2, and 2 mM CaCl2) or 25% FBS. The data was acquired from three independent assays performed in triplicate.
# (§2) The bacterial strains employed in this study were obtained from the American Type Culture Collection (ATCC). Each strain was propagated as recommended by the ATCC, and each strain was stored as a frozen glycerol stock at -80°C. A bacterial colony was grown on the appropriate agar as indicated in Table S1 and was used to inoculate the appropriate broth. The culture was incubated at the appropriate conditions, as mentioned in Table S1. Following the incubation, the culture was diluted to an optical density 625 nm (OD625) of 0.1 in cation adjusted Mueller Hinton Broth (CAMHB), which is equivalent to 1 × 10^8 CFU/mL. The culture was further diluted to 1 × 10^6 CFU/mL, which was used to conduct the MIC determination assay. For the S. pneumoniae strains, CAMHB + 2.5% lysed horse blood was required for the assay. The strains with their […]
# (§3) Table S3. Description of the characteristics and growth conditions of various bacterial strains
# [2] = test system: E. faecium (ATCC 700221); test: microbe, parasite or virus in culture; conditions: Enterococcus faecium, ATCC700221, 24 h, read-out: MIC, E. faecium (ATCC 700221)
# Method: as §1, §2, §3
# [3] = test system: E. faecium (ATCC 27270); test: microbe, parasite or virus in culture; conditions: Enterococcus faecium, ATCC27270, 24 h, read-out: MIC, E. faecium (ATCC 27270)
# Method: as §1, §2, §3
# [4] = test system: P. aeruginosa (ATCC 27883); test: MIC, standard microtiter dilution (CLSI); format: cell-based, Pseudomonas aeruginosa; conditions: broth microdilution (CLSI), CAMHB, 37 °C, 24 h
# Procedure, shortened: (§4)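 Broth microdilution per CLSI: overnight cultures diluted in cation-adjusted Mueller Hinton Broth to 10^6 CFU/mL, mixed with 2-fold serial peptide dilutions, incubated 37 °C for 24 h. MIC = lowest peptide concentration inhibiting growth. Three independent assays in triplicate.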
# [5] = test system: E. coli (ATCC BAA-2452); test: Flow cytometric analysis of PI-stained cells; format: cell-based; conditions: MIC and 4 × MIC, 1 h, flow cytometry
# Method: The flow cytometric analysis was performed by using MRSA (ATCC BAA-1556) and E. coli (ATCC BAA-2452) cultures grown to the mid log phase in Mueller Hinton broth (HIMEDIA). Before treatment, bacterial cells were washed thrice with buffer (10 mM Tris, pH 7.4) and resuspended in the same buffer to obtain 10^7 CFU/mL bacterial suspensions. Test peptides (8a and 8b) and the standard antibiotics (daptomycin and polymyxin B) at MIC and 4 × MIC were incubated with bacterial suspension for 1 h. Following the treatment with test peptides, the cells were pelleted by centrifugation at 3000g for 15 min in a microcentrifuge. The supernatant was decanted, and the cells were washed with PBS several times and then incubated with PI ([…]) in the dark for 15 min at 37 °C. FACS analysis of the stained bacterial cells was performed using a FACscan flow cytometer (BD Accuri C6, BD Biosciences, California, USA), and data were analyzed by using Cell Quest software.
# [6] = test system: E. coli (ATCC BAA-2452); test: Bactericidal kinetic assay; format: cell-based
# Method: The time course of bacterial killing was studied by the exposure of overnight grown cultures of MRSA (ATCC BAA-1556) and E. coli (ATCC BAA-2452) to 8a and 8b at the MIC and 4× the MIC in Muller Hinton media. Bacterial cells (2 × 10^6 CFU/mL) were treated with peptides and standard antibiotics and incubated at 37 °C. Aliquots were withdrawn at a 30 min time interval for 4 h and plated on the agar plate to determine the number of viable bacterial colonies. Data were obtained from two independent experiments performed in triplicate.
# [7] = test system: P. aeruginosa (ATCC 10145); conditions: Gram-negative; CLSI microdilution, CAMHB, 37 °C, 24 h; highest MIC of three independent experiments in triplicate
# Procedure, shortened: as §4
# [8] = test system: E. coli (ATCC BAA-2452); conditions: Gram-negative, NDM-1; CLSI microdilution, CAMHB, 37 °C, 24 h; highest MIC of three independent experiments in triplicate
# Procedure, shortened: as §4
# [9] = test system: K. pneumonia (ATCC BAA-2470); conditions: Gram-negative, carbapenem-resistant; CLSI microdilution, CAMHB, 37 °C, 24 h; highest MIC of three independent experiments in triplicate
# Procedure, shortened: as §4
# [10] = test system: E. coli (ATCC 25922); conditions: for MIC, E. coli (ATCC 25922): broth microdilution (CLSI), CAMHB, 37 °C, 24 h
# Procedure, shortened: as §4
# [11] = test system: Klebsiella pneumonia (ATCC 13883); conditions: Gram-negative; CLSI microdilution, CAMHB, 37 °C, 24 h; highest MIC of three independent experiments in triplicate
# Procedure, shortened: as §4
# [12] = test system: A. baumannii (ATCC BAA1605); conditions: Gram-negative, footnote e ciprofloxacin (MDR in Table S3); CLSI microdilution, CAMHB, 37 °C, 24 h; highest MIC of three independent experiments in triplicate
# Procedure, shortened: as §4
# [13] = test system: P. aeruginosa (ATCC BAA-1744); conditions: Gram-negative, resistant strain (marked a; imipenem resistant in Table S3); CLSI microdilution, CAMHB, 37 °C, 24 h; highest MIC of three independent experiments in triplicate
# Procedure, shortened: as §4
# [14] = test system: K. pneumoniae (ATCCBAA-1705); test: MIC, standard microtiter dilution (CLSI); format: cell-based, Klebsiella pneumoniae; conditions: broth microdilution (CLSI), CAMHB, 37 °C, 24 h
# Procedure, shortened: as §4
# [15] = 10^6 CFU/mL, highest MIC of three independent experiments in triplicate
smiles,measurement,setting,value
"CN[C@H](CC(C)C)C(=O)N[C@H]1C(=O)N[C@@H](CC(N)=O)C(=O)N[C@H]2C(=O)N[C@H]3C(=O)N[C@H](C(=O)N[C@H](C(=O)O)c4cc(O)cc(O)c4-c4cc3ccc4O)[C@H](O)c3ccc(c(Cl)c3)Oc3cc2cc(c3O[C@@H]2O[C@H](CO)[C@@H](O)[C@H](O)[C@H]2O[C@H]2C[C@](C)(N)[C@H](O)[C@H](C)O2)Oc2ccc(cc2Cl)[C@H]1O [vancomycin, reference compound]",MIC,[1],> 50 µg/mL
same,MIC,[2],> 50 µg/mL
same,MIC,[3],1.5 µg/mL
"CC[C@H](C)CCCCC(=O)N[C@@H](CCN)C(=O)N[C@H](C(=O)N[C@@H](CCN)C(=O)N[C@H]1CCNC(=O)[C@H]([C@@H](C)O)NC(=O)[C@H](CCN)NC(=O)[C@H](CCN)NC(=O)[C@H](CC(C)C)NC(=O)[C@@H](Cc2ccccc2)NC(=O)[C@H](CCN)NC1=O)[C@@H](C)O [polymyxin B, reference compound] (X1-[Dab]T[Dab][Dab][Dab][dF]L[Dab][Dab]T; lactam 4-C (inferred); N-terminus assumed)","MIC, P. aeruginosa (ATCC 27883)",[4]; [15],1.5 µg/mL
same,"MIC, P. aeruginosa (ATCC 27883)",[4]; value in parentheses (μM),1.25 µM
same,PI-stained population of E. coli cells,[5],did not significantly increase
same,time to complete eradication of E. coli cells at 4 × MIC,[6],2.5 h
same,"MIC, P. aeruginosa (ATCC 10145)",[7],0.7 µg/mL
same,"MIC, E. coli (ATCC BAA-2452)",[8],0.7 µg/mL
same,"MIC, K. pneumonia (ATCC BAA-2470)",[9],1.5 µg/mL
same,"MIC, E. coli (ATCC 25922), Control","[10]; MH media without salt ions or serum, three independent experiments in triplicate",0.7 µg/mL
same,"MIC, E. coli (ATCC 25922)",[10]; [15],0.7 µg/mL
same,"MIC, E. coli (ATCC 25922), MgCl2","[10]; media with 1 mM MgCl2, three independent experiments in triplicate",1.5 µg/mL
same,"MIC, E. coli (ATCC 25922), CaCl2","[10]; media with 2 mM CaCl2, three independent experiments in triplicate",0.7 µg/mL
same,"MIC, E. coli (ATCC 25922), KCl","[10]; media with 4.5 mM KCl, three independent experiments in triplicate",0.7 µg/mL
same,"MIC, E. coli (ATCC 25922), NH4Cl","[10]; media with 6 mM NH4Cl, three independent experiments in triplicate",0.7 µg/mL
same,"MIC, E. coli (ATCC 25922), NaCl","[10]; media with 150 mM NaCl, three independent experiments in triplicate",0.7 µg/mL
same,"MIC, E. coli (ATCC 25922), FBS (25%)","[10]; media with 25% fetal bovine serum, three independent experiments in triplicate",3.1 µg/mL
same,"MIC, E. coli (ATCC 25922)",[10]; value in parentheses (μM),0.58 µM
same,"MIC, Klebsiella pneumonia (ATCC 13883)",[11],6.2 µg/mL
same,"MIC, A. baumannii (ATCC BAA1605)",[12],0.7 µg/mL
same,"MIC, P. aeruginosa (ATCC BAA-1744)",[13],0.7 µg/mL
same,"MIC, K. pneumoniae (ATCCBAA-1705)",[14]; [15],0.7 µg/mL
same,"MIC, K. pneumoniae (ATCCBAA-1705)",[14]; value in parentheses (μM),0.58 µM
